Laboratory results published in US12319675B2 (Artax Biopharma Inc., priority 2018, dated 2025).
Like-named read-outs stand apart in the source and are kept apart here.

Columns and labels:
[1] = Microsomal stability assay, rat; format: in vitro ADME; settings: rat microsomes; for half-life: read-out: Microsomal Stability (T1/2 min) Rat
Experimental: (§1) Microsomal stability assays were performed using mouse, rat, and human […] according to methods well-known in the art. Microsomal stability results are shown in Table 2 for selected compounds of the invention. The compound numbers correspond to the compound numbers in Table 1. […] “N/A” indicates not assayed.

[2] = Microsomal stability assay, human; format: in vitro ADME; settings: human microsomes; for half-life: read-out: Microsomal Stability (T1/2 min) Human
Experimental: as §1

[3] = target: Nck SH3 domain interaction with the proline rich sequence of TCR subunit CD3ε (Homo sapiens, UniProt P16333); experiment: Competitive binding, biosensor with Interferometric Optical Detection Method (IODM); settings: ratio of 1:1 between Nck SH3 domain and inhibitors; biotinylated CD3ε peptide on sensing surface
Experimental: Inhibition of Nck SH3 domain interaction with the proline rich sequence of TCR subunit CD3ε was measured by optical read-out of a biosensor based on the Interferometric Optical Detection Method (IODM), using established methods (WO 2010/026269; WO 2014/020159; Laguna, M. et al., Sensors, 2015, 15(8):19819-29; and Holgado, M. et al., Sensors, 2014, 14(2): 3675-89).
Briefly, a Biophotonic Cell (BICELL) based on Fabry-Perot interferometers was used as the photonic transducer. The BICELL was fabricated using SU8 in cyclopentanone according to known methods (e.g., Laguna, M. F. et al., Sensors, 2014, 14(4): 6695-6700). Cured film was then treated with 95% sulfuric acid for 10 seconds. Streptavidin was then immobilized on the sensing surface in phosphate buffered saline (PBS; pH 7.4) over 20 min at 37° C. followed by blocking of the surface with 5% skin milk in PBS (pH 7.4). Biotinylated CD3ε peptide (SEQ ID NO: 001) in PBS (pH 7.4) was incubated with the streptavidin coated film to biofunctionalize the sensing surface (20 min at 37° C.).
Competitive binding assays were performed to determine the affinity reaction of inhibitors. The screening was carried out using a ratio of 1:1 between Nck SH3 domain and inhibitors. The optical readout of the biosensor was accomplished by a Fourier transform visible-infrared (FT-VIS-IR) spectrometer. Competitive binding results are shown in Table 3 for selected compounds of the invention. The compound numbers correspond to the compound numbers in Table 1. Compounds having a designation of “A” provide an Increased Relative Optical Power (ΔIROP) of less than or equal to thirty percent (≤30%); compounds having a designation of “B” provide a ΔIROP of between thirty and fifty percent (>30% to ≤50%); compounds having a designation of “C” provide an ΔIROP of between fifty and seventy percent (>50% to ≤70%); and compounds having a designation of “D” provide a ΔIROP of greater than seventy percent (>70%).

[4] = Microsomal stability assay, mouse; format: in vitro ADME; settings: mouse microsomes; for half-life: read-out: Microsomal Stability (T1/2 min) Mouse
Experimental: as §1

[5] = test system: CD3 mediated phosphorylation of ZAP70 in Jurkat cells; experiment: CD3 mediated phosphorylation of ZAP70 in Jurkat cells (HTRF); format: cell-based; settings: Jurkat cells stimulated with 20 μg/mL anti-CD3 antibody; for IC50: read-out: pZAP70 Inhibition IC50; for Emax: read-out: pZAP70 Inhibition - Maximum Percent Inhibition (% Inhibition)
Experimental: Inhibition of CD3 mediated phosphorylation of ZAP70 in Jurkat cells was measured by a cellular based Homogeneous Time-Resolved Fluorescence (HTRF) assay utilizing a Total ZAP-70 HTRF kit.
Briefly, Jurkat cells (˜1.3×10^6 cells/mL) were harvested on the day of experimentation. Cells were washed with PBS and resuspended in Assay Buffer (RPMI 1640 media plus 10% FBS) and counted.
Jurkat cells were seeded in Assay media at a total volume of 4 μL/well (40K cells/well) in a 384-low volume white flat bottom plate. The cells were then incubated at 37° C./5% CO2 for 30 minutes. The cells were then treated in duplicate with test compounds (3×) and reference compounds (3×) in a total volume of 4 μL, respectively. A compound dilution scheme is exemplified in FIG. 1.
The plate was then transferred to an incubator maintained at 37° C./5% CO2 for 2 minutes. Following incubation, cells were stimulated with 20 μg/mL of anti-CD3 antibody (1 mg/mL stock) and assay media was used to bring the total well volume 4 μL/well. The plate was then transferred to the incubator maintained at 37° C./5% CO2 for 2.5 minutes. Following incubation, 4 μL of lysis buffer (4×) provided in the kit was added to each well. The plate was then incubated at RT for 1 hour with gentle shaking. Following incubation, 4 μL of detection mix was added to each well and the plate was sealed with a plate sealer and left overnight at RT in the dark.
The Envision reader was set-up for Eu^3+ cryptate and fluorescence emission was read at two different wavelengths (620 nm and 665 nm). • Excitation filter: UV2(TRF) 320 nm • Emission filter: 665 nm • 2nd Emission filter: Europium 615 nm • Measurement height (mm): 6.5 • Excitation light (%): 100 • Delay (μs): 50 • Window time (μs): 400 • Time between flashes (μs): 2000 • Number of flashes: 100 • Number of flashes for 2nd detector: 100
The data is represented by the signal form the two wavelengths:
The ratio of the signal is calculated for each individual well:
The data was plotted using Graph Pad Prism. The significance between untreated vs. treated groups was assessed by One-way ANOVA and Bonferroni posttest comparing all columns in the graph.
ZAP70 IC50 results are shown in Table 6 for select compounds of the invention. The compound numbers correspond to the compound numbers in Table 1. […] “ND” indicates not determined.
ZAP70 percent maximum inhibition results are shown in Table 7 for select compounds of the invention. The compound numbers correspond to the compound numbers in Table 1.

[6] = Homo sapiens, maximum inhibition

half-life [1] | half-life [2] | half-life [4] | IC50 [5] | IC50 ([5]; Homo sapiens) | Molecule | ΔIROP (Increased Relative Optical Power) [3] | Microsomal Stability (T1/2 min) Rat ([1]; half-life) | Microsomal Stability (T1/2 min) Human ([2]; half-life) | Microsomal Stability (T1/2 min) Mouse ([4]; half-life) | pZAP70 Inhibition - Maximum Percent Inhibition (% Inhibition) ([5]; maximum inhibition) | Emax [5, 6]
< 10 min | 10 to 30 min | < 10 min |  |  | CN1CCN(C(=O)C2=C(c3ccc(F)cc3)c3cc(C(F)(F)F)ccc3OC2)CC1 [Compound I-26, (4-(4-fluorophenyl)-6-(trifluoromethyl)-2H-chromen-3-yl)(4-methylpiperazin-1-yl)methanone] | C (an ΔIROP of between fifty and seventy percent (>50% to ≤70%)) |  |  |  |  | 
10 to 30 min | > 30 min | 10 to 30 min |  |  | CN(C)CCNC(=O)C1=C(c2ccc(F)cc2)c2cc(OC(F)F)ccc2OC1 [Compound I-4] | B (a ΔIROP of between thirty and fifty percent (>30% to ≤50%)) |  |  |  |  | 
 |  |  | < 1 nM |  | 4-((4-(4-fluorophenyl)-6-(trifluoromethoxy)-2H-chromen-3-yl)methyl)morpholine [Compound I-16] | B (a ΔIROP of between thirty and fifty percent (>30% to ≤50%)) | C (a half-life of less than ten (<10) minutes) | A (a half-life of greater than thirty (>30) minutes) | B (a half-life of between ten (10) and thirty (30) minutes) | C (a percent maximum inhibition of between forty and greater than thirty percent (40%≥x>30%)) | 
< 10 min | < 10 min | < 10 min |  |  | COc1ccc2c(c1)C(c1ccc(Cl)cc1)=C(C(=O)N1CCN(C)CC1)CO2 [Compound I-28] | D (a ΔIROP of greater than seventy percent (>70%)) |  |  |  |  | 
10 to 30 min | 10 to 30 min | < 10 min |  | 1 to 10 nM | CC(C)Oc1ccc2c(c1)C(c1ccc(F)cc1)=C(C(=O)N1CCN(C)CC1)CO2 [Compound I-23] | A (an Increased Relative Optical Power (ΔIROP) of less than or equal to thirty percent (≤30%)) |  |  |  |  | > 50%
10 to 30 min | > 30 min | < 10 min |  | 1 to 10 nM | COc1ccc2c(c1)C(c1ccc(C#N)cc1)=C(C(=O)N1CCN(C)CC1)CO2 [Compound I-30] | C (an ΔIROP of between fifty and seventy percent (>50% to ≤70%)) |  |  |  |  | 40 to 50%
< 10 min | > 30 min | > 30 min |  |  | CCNCC1=C(c2ccc(F)cc2)c2cc(OC(F)F)ccc2OC1 [Compound I-6] | C (an ΔIROP of between fifty and seventy percent (>50% to ≤70%)) |  |  |  |  | 
< 10 min | 10 to 30 min | < 10 min |  |  | CN1CCN(C(=O)C2=C(c3ccc(F)cc3)c3cc(Cl)ccc3OC2)CC1 [Compound I-25] | B (a ΔIROP of between thirty and fifty percent (>30% to ≤50%)) |  |  |  |  | 
< 10 min | 10 to 30 min | < 10 min |  |  | CCNC(=O)C1=C(c2ccc(F)cc2)c2cc(OC(F)F)ccc2OC1 [Compound I-2] | C (an ΔIROP of between fifty and seventy percent (>50% to ≤70%)) |  |  |  |  | 
< 10 min | 10 to 30 min | 10 to 30 min |  |  | CN1CCN(C(=O)C2=C(c3ccc(F)cc3)c3cc(OC(F)(F)F)ccc3OC2)CC1 [Compound I-9] | D (a ΔIROP of greater than seventy percent (>70%)) |  |  |  |  | 
< 10 min | 10 to 30 min | 10 to 30 min |  |  | N#CCCOc1ccc2c(c1)C(c1ccc(F)cc1)=C(CN1CCCC1)CO2 [Compound I-32, 3-((4-(4-fluorophenyl)-3-(pyrrolidin-1-ylmethyl)-2H-chromen-6-yl)oxy)propanenitrile] | B (a ΔIROP of between thirty and fifty percent (>30% to ≤50%)) |  |  |  |  | 
< 10 min | < 10 min | < 10 min |  |  | O=C(C1=C(c2ccc(F)cc2)c2cc(OC(F)F)ccc2OC1)N1CCCC1 [Compound I-1] | C (an ΔIROP of between fifty and seventy percent (>50% to ≤70%)) |  |  |  |  | 
< 10 min | 10 to 30 min | < 10 min |  |  | COc1ccc2c(c1)C(c1cccc(F)c1)=C(C(=O)N1CCN(C)CC1)CO2 [Compound I-31] | C (an ΔIROP of between fifty and seventy percent (>50% to ≤70%)) |  |  |  |  | 
10 to 30 min | > 30 min | > 30 min |  |  | Fc1ccc(C2=C(CN3CCCC3)COc3ccc(C(F)(F)F)cc32)cc1 [Compound I-17, 1-((4-(4-fluorophenyl)-6-(trifluoromethyl)-2H-chromen-3-yl)methyl)pyrrolidine] | C (an ΔIROP of between fifty and seventy percent (>50% to ≤70%)) |  |  |  |  | 
< 10 min | > 30 min | < 10 min |  |  | CCNC(=O)C1=C(c2ccc(F)cc2)c2cc(OC(F)(F)F)ccc2OC1 [Compound I-8] | B (a ΔIROP of between thirty and fifty percent (>30% to ≤50%)) |  |  |  |  | 
> 30 min | > 30 min | > 30 min |  |  | CN(C)CCNC(=O)C1=C(c2ccc(F)cc2)c2cc(OC(F)(F)F)ccc2OC1 [Compound I-10, N-(2-(dimethylamino)ethyl)-4-(4-fluorophenyl)-6-(trifluoromethoxy)-2H-chromene-3-carboxamide] | A (an Increased Relative Optical Power (ΔIROP) of less than or equal to thirty percent (≤30%)) |  |  |  |  | 
10 to 30 min | < 10 min | < 10 min |  |  | COc1ccc2c(c1)C(c1ccc(C(F)(F)F)cc1)=C(C(=O)N1CCN(C)CC1)CO2 [Compound I-29] | B (a ΔIROP of between thirty and fifty percent (>30% to ≤50%)) |  |  |  |  | 
10 to 30 min | 10 to 30 min | 10 to 30 min |  |  | Fc1ccc(C2=C(CN3CCOCC3)COc3ccc(OC(F)F)cc32)cc1 [Compound I-5] | B (a ΔIROP of between thirty and fifty percent (>30% to ≤50%)) |  |  |  |  | 
